Source: patent publication US10669283B2, “Compound and pharmacologically acceptable salt thereof” (MEIJI SEIKA PHARMA CO., LTD., priority 2016, dated 2020)

System: PDE4
Assay: PDE4 inhibition, scintillation proximity assay (SPA);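 further: A below 100 nM B 100 to below 1000 nM C 1000 nM or more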
Type: biochemical
Conditions: scintillation proximity assay (SPA); evaluated as classes A, B, C; read-out: PDE4 Inhibitory Activity (concentration for the inhibition rate of 50%)
Summary of the method: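 Compound pre-diluted 1:10 in 50 mM Tris-HCl pH 7.4, 8.3 mM MgCl2, 1.7 mM EGTA, 3 mg/mL BSA, then incubated with PDE4 and [2,8-3H]-cAMP for 120 min at room temperature. Product captured on ZnSO4-containing YSi-SPA beads for 15 min; radioactivity counted against no-enzyme blank and DMSO control.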

SMILES	IC50 [µM]
CC(=O)c1cc(-c2nccs2)c2oc(N3CC4CCC(C3)N4)nc2c1C(F)(F)F [Example 179, 1-(2-(3,8-Diazabicyclo[3.2.1]octan-3-yl)-7-(thiazol-2-yl)-4-(trifluoromethyl)benzo[d]oxazol-5-yl)ethan-1-one]	< 0.1
CC(=O)c1cc(-c2nccs2)c2oc(N3CC4CC(C3)N4)nc2c1C(F)(F)F [Example 180, 1-(2-(3,6-Diazabicyclo[3.1.1]heptan-3-yl)-7-(thiazol-2-yl)-4-(trifluoromethyl)benzo[d]oxazol-5-yl)ethan-1-one]	< 0.1
CC(O)c1cc(-c2nccs2)c2oc(N3CC4CCC(C3)N4)nc2c1C(F)(F)F (centres unmarked) [Example 181, 1-(2-(3,8-Diazabicyclo[3.2.1]octan-3-yl)-7-(thiazol-2-yl)-4-(trifluoromethyl)benzo[d]oxazol-5-yl)ethan-1-ol]	< 0.1
CC(O)c1cc(-c2nccs2)c2oc(N3CC4CC(C3)N4)nc2c1C(F)(F)F (centres unmarked) [Example 182, 1-(2-(3,6-Diazabicyclo[3.1.1]heptan-3-yl)-7-(thiazol-2-yl)-4-(trifluoromethyl)benzo[d]oxazol-5-yl)ethan-1-ol]	< 0.1
OC(c1cc(-c2nccs2)c2oc(N3CC4CCC(C3)N4)nc2c1C(F)(F)F)C(F)F (centres unmarked) [Example 183, 1-(2-(3,8-Diazabicyclo[3.2.1]octan-3-yl)-7-(thiazol-2-yl)-4-(trifluoromethyl)benzo[d]oxazol-5-yl)-2,2-difluoroethan-1-ol]	< 0.1
COC(C)c1cc(-c2nccs2)c2oc(N3CC4CCC(C3)N4)nc2c1C(F)(F)F (centres unmarked) [Example 184, 2-(3,8-Diazabicyclo[3.2.1]octan-3-yl)-5-(1-methoxyethyl)-7-(thiazol-2-yl)-4-(trifluoromethyl)benzo[d]oxazole]	< 0.1
COC(C)c1cc(-c2nccs2)c2oc(N3CC4CC(C3)N4)nc2c1C(F)(F)F (centres unmarked) [Example 185, 2-(3,6-Diazabicyclo[3.1.1]heptan-3-yl)-5-(1-methoxyethyl)-7-(thiazol-2-yl)-4-(trifluoromethyl)benzo[d]oxazole]	< 0.1
CCOC(=O)c1cc(-c2nccs2)c2oc(N3CC4CCC(C3)N4)nc2c1OC(F)(F)F [Example 186, Ethyl 2-(3,8-diazabicyclo[3.2.1]octan-3-yl)-7-(thiazol-2-yl)-4-(trifluoromethoxy)benzo[d]oxazole-5-carboxylate]	< 0.1
CCOC(=O)c1cc(-c2nccs2)c2oc(N3CC4CC(C3)N4)nc2c1OC(F)(F)F [Example 187, Ethyl 2-(3,6-diazabicyclo[3.1.1]heptan-3-yl)-7-(thiazol-2-yl)-4-(trifluoromethoxy)benzo[d]oxazole-5-carboxylate]	< 0.1
CCOC(=O)c1cc(-c2nccs2)c2oc(N3CC4CCCC(C3)N4)nc2c1OC(F)(F)F [Example 188, Ethyl 2-(3,9-diazabicyclo[3.3.1]nonan-3-yl)-7-(thiazol-2-yl)-4-(trifluoromethoxy)benzo[d]oxazole-5-carboxylate]	< 0.1
O=C(O)c1cc(-c2nccs2)c2oc(N3CC4CCC(C3)N4)nc2c1OC(F)(F)F [Example 189, 2-(3,8-Diazabicyclo[3.2.1]octan-3-yl)-7-(thiazol-2-yl)-4-(trifluoromethoxy)benzo[d]oxazole-5-carboxylic acid]	0.1 to 1
O=C(O)c1cc(-c2nccs2)c2oc(N3CC4CC(C3)N4)nc2c1OC(F)(F)F [Example 190, 2-(3,6-Diazabicyclo[3.1.1]heptan-3-yl)-7-(thiazol-2-yl)-4-(trifluoromethoxy)benzo[d]oxazole-5-carboxylic acid]	> 1
O=C(O)c1cc(-c2nccs2)c2oc(N3CC4CCCC(C3)N4)nc2c1OC(F)(F)F [Example 191, 2-(3,9-Diazabicyclo[3.3.1]nonan-3-yl)-7-(thiazol-2-yl)-4-(trifluoromethoxy)benzo[d]oxazole-5-carboxylic acid]	0.1 to 1
O=C(c1cc(-c2nccs2)c2oc(N3CC4CCC(C3)N4)nc2c1OC(F)(F)F)N1CCC1 [Example 192, (2-(3,8-Diazabicyclo[3.2.1]octan-3-yl)-7-(thiazol-2-yl)-4-(trifluoromethoxy)benzo[d]oxazol-5-yl) (azetidin-1-yl)methanone]	< 0.1
CN(CCO)C(=O)c1cc(-c2nccs2)c2oc(N3CC4CCC(C3)N4)nc2c1OC(F)(F)F [Example 193, 2-(3,8-Diazabicyclo[3.2.1]octan-3-yl)-N-(2-hydroxyethyl)-N-methyl-7-(thiazol-2-yl)-4-(trifluoromethoxy)benzo [d]oxazole-5-carboxamide]	< 0.1
O=C(c1cc(-c2nccs2)c2oc(N3CC4CCC(C3)N4)nc2c1OC(F)(F)F)N1CC(O)(C(F)(F)F)C1 [Example 194, (2-(3,8-Diazabicyclo[3.2.1]octan-3-yl)-7-(thiazol-2-yl)-4-(trifluoromethoxy)benzo[d]oxazol-5-yl)(3-hydroxy-3-(trifluoromethyl)azetidin-1-yl)methanone]	0.1 to 1

SMILES	IC50 [µM]
CC(C)(O)c1cc(-c2nccs2)c2oc(N3CC4CCC(C3)N4)nc2c1OC(F)(F)F [Example 195, 2-(2-(3,8-Diazabicyclo[3.2.1]octan-3-yl)-7-(thiazol-2-yl)-4-(trifluoromethoxy)benzo[d]oxazol-5-yl)propan-2-ol]	< 0.1
CC(C)(O)c1cc(-c2nccs2)c2oc(N3CC4CC(C3)N4)nc2c1OC(F)(F)F [Example 196, 2-(2-(3,6-Diazabicyclo[3.1.1]heptan-3-yl)-7-(thiazol-2-yl)-4-(trifluoromethoxy)benzo[d]oxazol-5-yl)propan-2-ol]	< 0.1
CC(C)(O)c1cc(-c2nccs2)c2oc(N3CC4CCCC(C3)N4)nc2c1OC(F)(F)F [Example 197, 2-(2-(3,9-Diazabicyclo[3.3.1]nonan-3-yl)-7-(thiazol-2-yl)-4-(trifluoromethoxy)benzo[d]oxazol-5-yl)propan-2-ol]	< 0.1
COC(C)(C)c1cc(-c2nccs2)c2oc(N3CC4CCC(C3)N4)nc2c1OC(F)(F)F [Example 198, 2-(3,8-Diazabicyclo[3.2.1]octan-3-yl)-5-(2-methoxypropan-2-yl)-7-(thiazol-2-yl)-4-(trifluoromethoxy)benzo[d]oxazole]	< 0.1
COC(C)(C)c1cc(-c2nccs2)c2oc(N3CC4CC(C3)N4)nc2c1OC(F)(F)F [Example 199, 2-(3,6-Diazabicyclo[3.1.1]heptan-3-yl)-5-(2-methoxypropan-2-yl)-7-(thiazol-2-yl)-4-(trifluoromethoxy)benzo[d]oxazole]	< 0.1
COC(C)(C)c1cc(-c2nccs2)c2oc(N3CC4CCCC(C3)N4)nc2c1OC(F)(F)F [Example 200, 2-(3,9-Diazabicyclo[3.3.1]nonan-3-yl)-5-(2-methoxypropan-2-yl)-7-(thiazol-2-yl)-4-(trifluoromethoxy)benzo[d]oxazole]	< 0.1
OCc1cc(-c2nccs2)c2oc(N3CC4CCC(C3)N4)nc2c1OC(F)(F)F [Example 201, (2-(3,8-Diazabicyclo[3.2.1]octan-3-yl)-7-(thiazol-2-yl)-4-(trifluoromethoxy)benzo[d]oxazol-5-yl)methanol]	< 0.1
CC(O)c1cc(-c2nccs2)c2oc(N3CC4CCC(C3)N4)nc2c1OC(F)(F)F (centres unmarked) [Example 202, 1-(2-(3,8-Diazabicyclo[3.2.1]octan-3-yl)-7-(thiazol-2-yl)-4-(trifluoromethoxy)benzo[d]oxazol-5-yl)ethan-1-ol]	< 0.1
CC(O)c1cc(-c2nccs2)c2oc(N3CC4CC(C3)N4)nc2c1OC(F)(F)F (centres unmarked) [Example 203, 1-(2-(3,6-Diazabicyclo[3.1.1]heptan-3-yl)-7-(thiazol-2-yl)-4-(trifluoromethoxy)benzo[d]oxazol-5-yl)ethan-1-ol]	< 0.1
CCC(O)c1cc(-c2nccs2)c2oc(N3CC4CCC(C3)N4)nc2c1OC(F)(F)F (centres unmarked) [Example 204, 1-(2-(3,8-Diazabicyclo[3.2.1]octan-3-yl)-7-(thiazol-2-yl)-4-(trifluoromethoxy)benzo[d]oxazol-5-yl)propan-1-ol]	< 0.1
CC(C)C(O)c1cc(-c2nccs2)c2oc(N3CC4CCC(C3)N4)nc2c1OC(F)(F)F (centres unmarked) [Example 205, 1-(2-(3,8-Diazabicyclo[3.2.1]octan-3-yl)-7-(thiazol-2-yl)-4-(trifluoromethoxy)benzo[d]oxazol-5-yl)-2-methylpropan-1-ol]	< 0.1
OC(c1cc(-c2nccs2)c2oc(N3CC4CCC(C3)N4)nc2c1OC(F)(F)F)C(F)F (centres unmarked) [Example 206, 1-(2-(3,8-Diazabicyclo[3.2.1]octan-3-yl)-7-(thiazol-2-yl)-4-(trifluoromethoxy)benzo[d]oxazol-5-yl)-2,2-difluoroethan-1-ol]	< 0.1
OC(c1cc(-c2nccs2)c2oc(N3CC4CC(C3)N4)nc2c1OC(F)(F)F)C(F)F (centres unmarked) [Example 207, 1-(2-(3,6-Diazabicyclo[3.1.1]heptan-3-yl)-7-(thiazol-2-yl)-4-(trifluoromethoxy)benzo[d]oxazol-5-yl)-2,2-difluoroethan-1-ol]	< 0.1
COC(c1cc(-c2nccs2)c2oc(N3CC4CC(C3)N4)nc2c1OC(F)(F)F)C(F)F (centres unmarked) [Example 208, 2-(3,6-Diazabicyclo[3.1.1]heptan-3-yl)-5-(2,2-difluoro-1-methoxyethyl)-7-(thiazol-2-yl)-4-(trifluoromethoxy) benzo[d]oxazole]	< 0.1
COC(c1cc(-c2nccs2)c2oc(N3CC4CCC(C3)N4)nc2c1OC(F)(F)F)C(F)F (centres unmarked) [Example 209, 2-(3,8-Diazabicyclo[3.2.1]octan-3-yl)-5-(2,2-difluoro-1-methoxyethyl)-7-(thiazol-2-yl)-4-(trifluoromethoxy)benzo[d]oxazole]	< 0.1
COC(C)c1cc(-c2nccs2)c2oc(N3CC4CCC(C3)N4)nc2c1OC(F)(F)F (centres unmarked) [Example 210, 2-(3,8-Diazabicyclo[3.2.1]octan-3-yl)-5-(1-methoxyethyl)-7-(thiazol-2-yl)-4-(trifluoromethoxy)benzo[d]oxazole]	< 0.1
